Results on 21 compounds are retold here after US6335350B1, “Acetamide and substituted acetamide-containing thiourea inhibitors of herpes viruses” (American Home Products Corporation, priority 1998, dated 2002).

One experiment has as its system HSV-1. Put plainly: HSV Antiviral (ELISA) Assay. Conditions: Vero cells, HSV-1; for IC50: Human alphaherpesvirus 1, Vero, read-out: IC50 Ug/ml HSV. Format: cell-based, herpes simplex virus type 1. The protocol:
Vero cells (ATCC #CCL-81) are plated on 96-well tissue culture plates at 3.5×10^4 cells per 100 μl tissue culture DMEM (Dulbecco's modified Eagle media) supplemented with 2% fetal bovine serum (FBS) in each well. After overnight incubation @ 37° C. (in 5% CO2) and 30 minutes prior to infection with HSV-1 (multiplicity of infection equal to 0.006), cells are either untreated, or treated with test compound (multiple concentrations) or reference standard drug control. After approximately 24 hours post-infection incubation @ 37° C. (in 5% CO2), cells are fixed for ELISA assay. The primary antibody is murine anti-HSV glycoprotein D monoclonal primary antibody and the secondary antibody is goat anti-mouse IgG linked to β-galactosidase. Thus the extent of viral replication is determined by assessing β-galactosidase activity by quantifying the generation of the 4-methyl umbelliferone fluorescent cleavage product after addition of the methyl umbelliferyl-β-D-galactoside (Sigma #M1633) substrate on a microfluorimeter (365 nm for excitation and 450 nm for emission). Antiviral activity (IC50) of the test compound is determined by comparing the flourescence obtained in absence of compound to that obtained in the presence of compound.

The next experiment concerns VZV strain Ellen. In words: VZV Antiviral (ELISA) Assay. In kind it is cell-based, varicella-zoster virus. Particulars: human foreskin fibroblast cells; for IC50 / inhibition at 10 µg/mL: Human alphaherpesvirus 3, Fibroblast; for IC50: read-out: IC50 Ug/ml VZV; for inhibition at 10 µg/mL: read-out: % inhibition 10 ug/ml VZV, 10 ug/ml. As to the method:
For the generation of stock VZV to be used in the assay, VZV strain Ellen (ATCC #VR-1367) is used to infect human foreskin fibroblast (HFF) cells at low multiplicity (less than 0.1) and incubated overnight at 37° C. in 5% CO2. After the overnight incubation, the mixture of uninfected and VZV-infected HFF infected cells are then harvested and added to each well of 96-well plates (3.5×10^4 cells in 100 μl DMEM supplemented with 2% FBS) which contain test compound or the reference standard drug control (in 100 μl DMEM supplemented with 2% FBS per well). These cells are incubated for three days at 37° C. in 5% CO2, then fixed for ELISA assay. The primary antibody is murine anti-VZV glycoprotein II monoclonal antibody (Applied Biosystems, Inc. #13-145-100) and the secondary antibody is goat anti-mouse IgG linked to β-galactosidase. Thus the extent of viral replication is determined by assessing β-galactosidase activity by quantifying the generation of the 4-methyl umbelliferone fluorescent cleavage product after addition of the methyl umbelliferyl-β-D-galactoside (Sigma #M1633) substrate on a microfluorimeter (365 nm for excitation and 450 nm for emission). Antiviral activity (IC50) of the test compound is determined by comparing the flourescence obtained in absence of compound to that obtained in the presence of compound.
On the technique in general: ELISA stands for enzyme-linked immunosorbent assay.

Another experiment relates to HCMV wild-type. In words: HCMV yield assay. In kind it is cell-based, human cytomegalovirus. Particulars: human foreskin fibroblasts; for IC50: Human betaherpesvirus 5, Fibroblast, read-out: IC50 Ug/ml HCMV. The protocol:
Yield assay. Monolayer cultures of human foreskin fibroblasts are infected with HCMV wild-type, typically at a multiplicity of infection equal to 0.2, in the presence of inhibitor compound (varying concentrations). At three days post-infection, total virus produced in these cultures (i.e. virus yield) is assessed by harvesting and titering the virus in 12-well plates of cultured human foreskin fibroblasts (done in the absence of inhibitor). Plaques are quantified at 2 weeks post-infection. An inhibitor of HCMV is identified by the reduction in titer of virus yield in the presence, compared to the titer in the absence of compound. In this assay, the relative anti-HCMV activity of an inhibitor is typically determined by calculating the IC50 or IC90 value, that is, the amount of compound required to reduce the virus yield by 50% or 90%, respectively. Table I describes IC50 data for compounds tested against HCMV.

Converted amounts (≈) assume the structure as drawn.

`COc1ccc(NC(=S)Nc2ccc(NC(C)=O)cc2)c(O)c1` [Example 132, N-{4-[3-(2-Hydroxy-4-methoxy-phenyl)-thioureido]-phenyl}-acetamide]: the figures for the IC50 with HSV-1, with VZV strain Ellen and in the experiment on HCMV wild-type were more than 50 µg/mL, more than 10 µg/mL and more than 50 µg/mL, respectively. The inhibition at 10 µg/mL in the experiment with VZV strain Ellen came to 11%.

As for `COc1cc(OC)c(NC(=S)Nc2ccc(NC(C)=O)cc2)cc1Br` [Example 150, N-{4-[3-(5-Bromo-2,4-dimethoxy-phenyl)-thioureido]-phenyl}-acetamide], the results for the IC50 in the experiment with HSV-1, with VZV strain Ellen and with HCMV wild-type were 9 µg/mL (≈ 21.2 µM), more than 10 µg/mL and 40 µg/mL (≈ 94.3 µM), respectively. Besides, the inhibition at 10 µg/mL in the experiment with VZV strain Ellen amounted to 3%.

Regarding `COc1cc(NC(=S)Nc2ccc(NC(C)=O)cc2)cc(OC)c1OC` [Example 151, N-{4-[3-(3,4,5-Trimethoxy-phenyl)-thioureido]-phenyl}-acetamide], the IC50 in the experiment with HSV-1 was more than 50 µg/mL; with VZV strain Ellen, more than 10 µg/mL; in the experiment with HCMV wild-type, 40 µg/mL (≈ 107 µM). The inhibition at 10 µg/mL in the experiment on VZV strain Ellen came out at 0%.

On to `COc1c(NC(=S)Nc2ccc(NC(C)=O)cc2)cc(Cl)c(C)c1Cl` [Example 152, N-{4-[3-(3,5-Dichloro-2-methoxy-4-methyl-phenyl)-thioureido]-phenyl}-acetamide], for which the “IC50 Ug/ml HSV” value in the experiment on HSV-1 is 2 Ug/ml. In the experiment on VZV strain Ellen, the “% inhibition 10 ug/ml VZV” value is listed as 70% and the “IC50 Ug/ml VZV” value was found to be 7.5 Ug/ml. Moreover, the “IC50 Ug/ml HCMV” value in the experiment with HCMV wild-type was found to be 0.8 Ug/ml.

With `CCOc1c(Cl)cc(NC(=S)Nc2ccc(NC(C)=O)cc2)cc1Cl` [Example 176, N-{4-[3-(3,5-Dichloro-4-ethoxy-phenyl)-thioureido]-phenyl}-acetamide], the IC50 in the experiment with HSV-1 is more than 50 µg/mL; in the experiment with VZV strain Ellen, more than 10 µg/mL; in the experiment on HCMV wild-type, 0.5 µg/mL (≈ 1.26 µM). For the same compound, the inhibition at 10 µg/mL in the experiment with VZV strain Ellen was determined as 24%.

As for `CCCCOc1c(Cl)cc(NC(=S)Nc2ccc(NC(C)=O)cc2)cc1Cl` [Example 177, N-{4-[3-(4-Butoxy-3,5-dichloro-phenyl)-thioureido]-phenyl}-acetamide], the results for the IC50 with HSV-1, in the experiment on VZV strain Ellen and in the experiment with HCMV wild-type were more than 50 µg/mL, more than 10 µg/mL and 3.5 µg/mL (≈ 8.21 µM), respectively. In addition, the inhibition at 10 µg/mL in the experiment with VZV strain Ellen was found to be 19%.

For `CC(=O)Nc1ccc(NC(=S)Nc2cc(Cl)c(OCc3ccccc3)c(Cl)c2)cc1` [Example 178, N-{4-[3-(4-Benzyloxy-3,5-dichloro-phenyl)-thioureido]-phenyl}-acetamide], the IC50 was more than 50 µg/mL in the experiment on HSV-1, more than 10 µg/mL with VZV strain Ellen and more than 10 µg/mL with HCMV wild-type. For the same compound, the inhibition at 10 µg/mL with VZV strain Ellen was 32%.

In the case of `COc1ccc(NC(=S)Nc2ccc(NC(C)=O)cc2)c(OC)c1Cl` [Example 179, N-{4-[3-(3-Chloro-2,4-dimethoxy-phenyl)-thioureido]-phenyl}-acetamide], the IC50 was 5 µg/mL (≈ 13.2 µM) in the experiment with HSV-1, more than 10 µg/mL in the experiment on VZV strain Ellen and more than 50 µg/mL with HCMV wild-type. For the same compound, the inhibition at 10 µg/mL in the experiment with VZV strain Ellen stood at 35%.

In the case of `COc1cc(OC)c(NC(=S)Nc2ccc(NC(C)=O)cc2)cc1I` [Example 197, N-{4-[3-(5-Iodo-2,4-dimethoxy-phenyl)-thioureido]-phenyl}-acetamide], the figures for the IC50 with HSV-1, in the experiment on VZV strain Ellen and with HCMV wild-type were 6 µg/mL (≈ 12.7 µM), more than 15 µg/mL and more than 10 µg/mL, respectively. In addition, the inhibition at 10 µg/mL in the experiment with VZV strain Ellen stood at 59%.

As to `COc1cc(OC)c(NC(=S)Nc2ccc(NC(C)=O)cc2)cc1F` [Example 198, N-{4-[3-(5-Fluoro-2,4-dimethoxy-phenyl)-thioureido]-phenyl}-acetamide], the values for the IC50 in the experiment with HSV-1, with VZV strain Ellen and with HCMV wild-type were 9 µg/mL (≈ 24.8 µM), more than 10 µg/mL and more than 50 µg/mL, respectively. Also, the inhibition at 10 µg/mL in the experiment with VZV strain Ellen worked out at 36%.

As to `COc1cc(C)c(Cl)cc1NC(=S)Nc1ccc(NC(C)=O)cc1` [Example 199, N-{4-[3-(5-Chloro-2-methoxy-4-methyl-phenyl)-thioureido]-phenyl}-acetamide], the IC50 was 1.2 µg/mL (≈ 3.3 µM) in the experiment with HSV-1, more than 15 µg/mL in the experiment with VZV strain Ellen and more than 10 µg/mL in the experiment with HCMV wild-type. For the same compound, the inhibition at 10 µg/mL with VZV strain Ellen is 60%.

As to `CCN(CC)c1ccc(NC(=S)Nc2ccc(NC(C)=O)cc2)cc1Cl` [Example 202, N-{4-[3-(3-Chloro-4-diethylamino-phenyl)-thioureido]-phenyl}-acetamide], the results for the IC50 in the experiment on HSV-1, in the experiment with VZV strain Ellen and in the experiment with HCMV wild-type were 3 µg/mL (≈ 7.67 µM), more than 10 µg/mL and more than 10 µg/mL, respectively. Further, the inhibition at 10 µg/mL in the experiment on VZV strain Ellen was found to be 18%.

For `CC(=O)Nc1ccc(NC(=S)Nc2ccc(N(C)C3CCCCC3)c(Cl)c2)cc1` [Example 203], in the experiment with HSV-1, the “IC50 Ug/ml HSV” value is reported as more than 10 Ug/ml. In the experiment with VZV strain Ellen, the “% inhibition 10 ug/ml VZV” value is listed as 22% and the “IC50 Ug/ml VZV” value was more than 10 Ug/ml. Besides, the “IC50 Ug/ml HCMV” value in the experiment on HCMV wild-type was found to be 2 Ug/ml.

Take `CC(=O)Nc1ccc(NC(=S)Nc2ccc(N3CCOCC3)c(Cl)c2)cc1` [Example 205, N-{4-[3-(3-Chloro-4-morpholin-4-yl-phenyl)-thioureido]-phenyl}-acetamide]: the IC50 is more than 50 µg/mL with HSV-1, more than 10 µg/mL with VZV strain Ellen and 20 µg/mL (≈ 49.4 µM) in the experiment with HCMV wild-type. The inhibition at 10 µg/mL in the experiment on VZV strain Ellen worked out at 30%.

In the case of `COc1cc(OCCCC#N)c(Cl)cc1NC(=S)Nc1ccc(NC(C)=O)cc1` [Example 211, N-(4-{3-[5-Chloro-2-methoxy-4-(4-nitrilo-butoxy)-phenyl]-thioureido}-phenyl)-acetamide], the IC50 was 30 µg/mL (≈ 69.3 µM) in the experiment with HSV-1, more than 10 µg/mL in the experiment with VZV strain Ellen and more than 10 µg/mL in the experiment on HCMV wild-type. Further, in the experiment with VZV strain Ellen, the inhibition at 10 µg/mL worked out at 35%.

For `COc1cc(OCC#N)c(Cl)cc1NC(=S)Nc1ccc(NC(C)=O)cc1` [Example 212, N-(4-{3-[5-Chloro-2-methoxy-4-(2-nitrilo-ethoxy)-phenyl]-thioureido}-phenyl)-acetamide], the IC50 in the experiment with HSV-1 is more than 50 µg/mL; in the experiment on VZV strain Ellen, more than 10 µg/mL; with HCMV wild-type, 20 µg/mL (≈ 49.4 µM). The inhibition at 10 µg/mL in the experiment on VZV strain Ellen was found to be 23%.

In the case of `COc1cc(OCC#N)c(NC(=S)Nc2ccc(NC(C)=O)cc2)cc1Cl` [Example 213, N-(4-{3-[5-Chloro-4-methoxy-2-(2-nitrilo-ethoxy)-phenyl]-thioureido}-phenyl)-acetamide], the IC50 was 30 µg/mL (≈ 74.1 µM) in the experiment on HSV-1, more than 10 µg/mL in the experiment on VZV strain Ellen and 15 µg/mL (≈ 37 µM) in the experiment with HCMV wild-type. Also, the inhibition at 10 µg/mL in the experiment on VZV strain Ellen is 20%.

Regarding `COc1cc(OCCO)c(NC(=S)Nc2ccc(NC(C)=O)cc2)cc1Cl` [Example 214, N-(4-{3-[5-Chloro-2-(2-hydroxy-ethoxy)-4-methoxy-phenyl]-thioureido}-phenyl)-acetamide], the IC50 with HSV-1 was 20 µg/mL (≈ 48.8 µM); in the experiment with VZV strain Ellen, more than 10 µg/mL; with HCMV wild-type, more than 10 µg/mL. Besides, the inhibition at 10 µg/mL in the experiment with VZV strain Ellen was 20%.

As to `COc1cc(OCCO)c(Cl)cc1NC(=S)Nc1ccc(NC(C)=O)cc1` [Example 215, N-(4-{3-[5-Chloro-4-(2-hydroxy-ethoxy)-2-methoxy-phenyl]-thioureido}-phenyl)-acetamide], the IC50 with HSV-1 is more than 50 µg/mL; in the experiment on VZV strain Ellen it was more than 10 µg/mL; in the experiment with HCMV wild-type it was more than 10 µg/mL. In addition, the inhibition at 10 µg/mL in the experiment with VZV strain Ellen came to 30%.

On to `COc1cc(OCC(=O)OC(C)(C)C)c(Cl)cc1NC(=S)Nc1ccc(NC(C)=O)cc1` [Example 216, {4-[3-(4-Acetylamino-phenyl)-thioureido]-2-chloro-5-methoxy-phenoxy}-acetic acid tert-butyl ester], for which the IC50 with HSV-1 is 35 µg/mL (≈ 72.9 µM); in the experiment with VZV strain Ellen, more than 10 µg/mL; in the experiment with HCMV wild-type, more than 10 µg/mL. Also, the inhibition at 10 µg/mL in the experiment with VZV strain Ellen stood at 23%.

Take `COC(=O)COc1cc(OC)c(NC(=S)Nc2ccc(NC(C)=O)cc2)cc1Cl` [Example 217, {4-[3-(4-Acetylamino-phenyl)-thioureido]-2-chloro-5-methoxy-phenoxy}-acetic acid methyl ester]: the IC50 with HSV-1 is more than 50 µg/mL; in the experiment on VZV strain Ellen, more than 10 µg/mL; with HCMV wild-type, more than 10 µg/mL. In the experiment on VZV strain Ellen, the inhibition at 10 µg/mL was 10%.
